{"source": "patent US20090047371A1", "about": "“PHARMACEUTICAL COMPOSITION COMPRISING CURCUMIN AND RESVERATROL AND USES THEREOF IN MEDICAL FIELD” (SAFI INVESTMENT HOLDING AG, priority 2005, published 2009)", "origin": "cited, not measured here", "system": "hair loss", "conditions": "many cases in India and in Europe where Curcumin has been employed"}
{"smiles": "COc1cc(/C=C/C(=O)CC(=O)/C=C/c2ccc(O)c(OC)c2)ccc1O", "note": "[Curcumin, curcumin]", "values": [{"measurement": "effect on hair", "result": "any effect on hair has never been reported"}]}
